Assay results from US10597388B2, “Pyridazinone herbicides” (FMC CORPORATION, priority 2014, dated 2020).

How the values were obtained:
Experiment in all cases: Test D controlled growth environment herbicide test, pre- and postemergence
Assay type in all cases: in vivo
[1] = test system: barley, winter (winter barley, Hordeum vulgare); details: for Barley, Winter plant response rating / Plant response rating (scale of 0 to 100), Barley, Winter: 31 g ai/ha
In short: (§1)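 Species sown in silt loam and sprayed preemergence, or grown in peat-based medium to 2–18 cm (1- to 4-leaf stage) and sprayed postemergence, with compounds in non-phytotoxic solvent plus surfactant. Visual injury scored versus controls after 14–21 d in a controlled environment, 0 (no effect) to 100 (complete control).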

[2] = test system: blackgrass (Alopecurus myosuroides); details: for Blackgrass plant response rating / Plant response rating (scale of 0 to 100), Blackgrass: 31 g ai/ha
In short: as §1

[3] = test system: bluegrass (annual bluegrass, Poa annua); details: for Bluegrass plant response rating / Plant response rating (scale of 0 to 100), Bluegrass: 31 g ai/ha
In short: as §1

[4] = test system: bromegrass, downy (downy bromegrass, Bromus tectorum); details: for Bromegrass, Downy plant response rating / Plant response rating (scale of 0 to 100), Bromegrass, Downy: 31 g ai/ha
In short: as §1

[5] = test system: chamomile (scentless chamomile, Matricaria inodora)
In short: as §1

[6] = test system: chickweed (common chickweed, Stellaria media)
In short: as §1

[7] = test system: field violet (Viola arvensis)
In short: as §1

[8] = test system: foxtail, green (green foxtail, Setaria viridis)
In short: as §1

[9] = test system: galium (catchweed bedstraw, Galium aparine)
In short: as §1

kochia (Kochia scoparia) = test system: kochia (Kochia scoparia)
In short: as §1

[10] = test system: lambsquarters (Chenopodium album)
In short: as §1

[11] = test system: pigweed (Amaranthus retroflexus)
In short: as §1

[12] = test system: wheat, winter (winter wheat, Triticum aestivum)
In short: as §1

[13] = Postemergence, scale 0 to 100 (0 no effect, 100 complete control)
[14] = Postemergence, 125 g ai/ha, visual rating on scale 0 (no effect) to 100 (complete control), 14 to 21 d
[15] = Postemergence, 250 g ai/ha, scale 0 to 100 (0 no effect, 100 complete control)
[16] = Preemergence, 62 g ai/ha, scale 0 to 100 (0 no effect, 100 complete control)
[17] = Preemergence, 125 g ai/ha, scale 0 to 100 (0 no effect, 100 complete control)
[18] = Preemergence, 250 g ai/ha, scale 0 to 100, 0 no effect, 100 complete control
[19] = postemergence, 62 g ai/ha, scale 0 to 100, 0 no effect, 100 complete control
[20] = Postemergence, 31 g ai/ha, scale 0 to 100 (0 no effect, 100 complete control)

COC(=O)Oc1c(C)nn(C)c(=O)c1-c1c(C)sc2ccc(C)cc12 [Compound 80]
55: Plant response rating, Bluegrass [3, 16] | Bromegrass, Downy plant response rating [4, 13] | Plant response rating (scale of 0 to 100), Field Violet ([7]; Preemergence, 31 g ai/ha)
30: Plant response rating (scale of 0 to 100), Bromegrass, Downy ([4]; Preemergence)
40: Plant response rating, Galium [9, 16]
90: Plant response rating, Blackgrass [2, 14] | Plant response rating, Blackgrass [2, 15] | Chickweed plant response rating [6, 20] | Field Violet plant response rating [7, 20] | Plant response rating, Foxtail, Green [8, 14] | Plant response rating, Foxtail, Green [8, 19] | Galium plant response rating [9, 20] | Plant response rating, Galium [9, 18]
80: Plant response rating, Blackgrass [2, 17] | Plant response rating, Blackgrass [2, 19] | Chamomile plant response rating [5, 20] | Plant response rating, Foxtail, Green [8, 16] | Plant response rating, Galium [9, 17]
0: Barley, Winter plant response rating [1, 13] | Plant response rating (scale of 0 to 100), Barley, Winter ([1]; Preemergence) | Plant response rating, Barley, Winter [1, 16] | Plant response rating, Barley, Winter [1, 19] | Wheat, Winter plant response rating [12, 20] | Plant response rating (scale of 0 to 100), Wheat, Winter ([12]; Preemergence, 31 g ai/ha) | Plant response rating, Wheat, Winter [12, 16] | Plant response rating, Wheat, Winter [12, 17] | Plant response rating, Wheat, Winter [12, 19]
35: Plant response rating, Bluegrass [3, 14] | Plant response rating, Bluegrass [3, 19] | Plant response rating, Bromegrass, Downy [4, 16] | Plant response rating (scale of 0 to 100), Kochia (kochia (Kochia scoparia); Preemergence, 31 g ai/ha)
65: Plant response rating, Bromegrass, Downy [4, 19]
45: Plant response rating, Barley, Winter [1, 18] | Plant response rating, Bluegrass [3, 15]
95: Plant response rating (scale of 0 to 100), Chamomile ([5]; Preemergence, 31 g ai/ha) | Plant response rating, Chamomile [5, 19] | Plant response rating, Field Violet [7, 14] | Plant response rating, Field Violet [7, 16] | Plant response rating, Field Violet [7, 18] | Plant response rating, Foxtail, Green [8, 15] | Plant response rating, Galium [9, 14] | Plant response rating, Galium [9, 19] | Lambsquarters plant response rating [10, 20]
100: Plant response rating, Chamomile [5, 14] | Plant response rating, Chamomile [5, 15] | Plant response rating, Chamomile [5, 16] | Plant response rating, Chamomile [5, 17] | Plant response rating, Chamomile [5, 18] | Plant response rating, Chickweed [6, 14] | Plant response rating, Chickweed [6, 15] | Plant response rating (scale of 0 to 100), Chickweed ([6]; Preemergence, 31 g ai/ha) | Plant response rating, Chickweed [6, 16] | Plant response rating, Chickweed [6, 17] | Plant response rating, Chickweed [6, 18] | Plant response rating, Chickweed [6, 19] | Plant response rating, Field Violet [7, 15] | Plant response rating, Field Violet [7, 17] | Plant response rating, Foxtail, Green [8, 17] | Plant response rating, Foxtail, Green [8, 18] | Plant response rating, Galium [9, 15] | Kochia plant response rating (kochia (Kochia scoparia); [20]) | Plant response rating, Kochia (kochia (Kochia scoparia); [14]) | Plant response rating, Kochia (kochia (Kochia scoparia); [15]) | Plant response rating, Kochia (kochia (Kochia scoparia); [17]) | Plant response rating, Kochia (kochia (Kochia scoparia); [18]) | Plant response rating, Kochia (kochia (Kochia scoparia); [19]) | Plant response rating, Lambsquarters [10, 14] | Plant response rating, Lambsquarters [10, 15] | Plant response rating (scale of 0 to 100), Lambsquarters ([10]; Preemergence, 31 g ai/ha) | Plant response rating, Lambsquarters [10, 16] | Plant response rating, Lambsquarters [10, 17] | Plant response rating, Lambsquarters [10, 18] | Plant response rating, Lambsquarters [10, 19] | Pigweed plant response rating [11, 20] | Plant response rating, Pigweed [11, 14] | Plant response rating, Pigweed [11, 15] | Plant response rating (scale of 0 to 100), Pigweed ([11]; Preemergence, 31 g ai/ha) | Plant response rating, Pigweed [11, 16] | Plant response rating, Pigweed [11, 17] | Plant response rating, Pigweed [11, 18] | Plant response rating, Pigweed [11, 19]
75: Blackgrass plant response rating [2, 13] | Plant response rating, Blackgrass [2, 16] | Plant response rating, Bluegrass [3, 17] | Plant response rating, Bluegrass [3, 18] | Plant response rating, Bromegrass, Downy [4, 15] | Plant response rating, Bromegrass, Downy [4, 17] | Plant response rating, Kochia (kochia (Kochia scoparia); [16])
20: Plant response rating (scale of 0 to 100), Bluegrass ([3]; Preemergence) | Plant response rating (scale of 0 to 100), Foxtail, Green ([8]; Preemergence, 31 g ai/ha) | Plant response rating, Wheat, Winter [12, 18]
25: Plant response rating (scale of 0 to 100), Galium ([9]; Preemergence, 31 g ai/ha)
85: Plant response rating, Blackgrass [2, 18] | Plant response rating, Bromegrass, Downy [4, 18] | Plant response rating, Field Violet [7, 19]
5: Plant response rating, Barley, Winter [1, 14] | Plant response rating, Wheat, Winter [12, 14]
70: Plant response rating (scale of 0 to 100), Blackgrass ([2]; Preemergence) | Plant response rating, Bromegrass, Downy [4, 14] | Foxtail, Green plant response rating [8, 20]
15: Plant response rating, Barley, Winter [1, 15] | Plant response rating, Barley, Winter [1, 17] | Bluegrass plant response rating [3, 13] | Plant response rating, Wheat, Winter [12, 15]

CCCC(=O)Oc1c(C)nn(C)c(=O)c1-c1c(C)sc2ccc(C)cc12 [Compound 105]
5: Plant response rating (scale of 0 to 100), Barley, Winter ([1]; Preemergence) | Plant response rating, Wheat, Winter [12, 17] | Plant response rating, Wheat, Winter [12, 18] | Plant response rating, Wheat, Winter [12, 19]
15: Plant response rating, Barley, Winter [1, 15] | Blackgrass plant response rating [2, 13]
65: Plant response rating, Blackgrass [2, 14] | Plant response rating, Blackgrass [2, 15] | Plant response rating, Bromegrass, Downy [4, 15] | Plant response rating, Bromegrass, Downy [4, 16] | Plant response rating, Foxtail, Green [8, 17]
25: Plant response rating, Barley, Winter [1, 18] | Plant response rating, Blackgrass [2, 19] | Plant response rating, Bluegrass [3, 15] | Plant response rating (scale of 0 to 100), Bluegrass ([3]; Preemergence) | Plant response rating, Bromegrass, Downy [4, 14]
0: Barley, Winter plant response rating [1, 13] | Wheat, Winter plant response rating [12, 20] | Plant response rating (scale of 0 to 100), Wheat, Winter ([12]; Preemergence, 31 g ai/ha) | Plant response rating (scale of 0 to 100), Wheat, Winter ([12]; Preemergence, 62 g ai/ha)
20: Plant response rating, Bluegrass [3, 14] | Plant response rating, Bromegrass, Downy [4, 19] | Plant response rating, Wheat, Winter [12, 15]
95: Plant response rating, Field Violet [7, 14] | Plant response rating, Galium [9, 14] | Plant response rating (scale of 0 to 100), Galium ([9]; Preemergence, 62 g ai/ha) | Plant response rating, Galium [9, 19] | Plant response rating, Kochia (kochia (Kochia scoparia); [14]) | Plant response rating, Kochia (kochia (Kochia scoparia); [17]) | Plant response rating, Kochia (kochia (Kochia scoparia); [19]) | Plant response rating, Lambsquarters [10, 15] | Plant response rating (scale of 0 to 100), Lambsquarters ([10]; Preemergence, 31 g ai/ha) | Plant response rating, Lambsquarters [10, 19]
55: Plant response rating (scale of 0 to 100), Foxtail, Green ([8]; Preemergence, 62 g ai/ha)
30: Plant response rating, Bluegrass [3, 16]
35: Plant response rating (scale of 0 to 100), Blackgrass ([2]; Preemergence) | Plant response rating (scale of 0 to 100), Bromegrass, Downy ([4]; Preemergence)
80: Chamomile plant response rating [5, 20] | Plant response rating, Foxtail, Green [8, 15] | Plant response rating (scale of 0 to 100), Galium ([9]; Preemergence, 31 g ai/ha)
90: Chickweed plant response rating [6, 20] | Plant response rating, Chickweed [6, 19] | Plant response rating, Field Violet [7, 19] | Plant response rating, Lambsquarters [10, 14]
60: Plant response rating, Blackgrass [2, 17] | Plant response rating, Bluegrass [3, 17]
10: Plant response rating, Barley, Winter [1, 14] | Plant response rating, Barley, Winter [1, 16] | Plant response rating, Barley, Winter [1, 17] | Plant response rating, Barley, Winter [1, 19] | Bluegrass plant response rating [3, 13] | Plant response rating, Bluegrass [3, 19] | Bromegrass, Downy plant response rating [4, 13] | Plant response rating (scale of 0 to 100), Kochia (kochia (Kochia scoparia); Preemergence, 31 g ai/ha) | Plant response rating, Wheat, Winter [12, 14]
85: Plant response rating, Chamomile [5, 19] | Field Violet plant response rating [7, 20] | Galium plant response rating [9, 20] | Plant response rating, Galium [9, 17] | Kochia plant response rating (kochia (Kochia scoparia); [20]) | Lambsquarters plant response rating [10, 20] | Pigweed plant response rating [11, 20]
45: Plant response rating (scale of 0 to 100), Foxtail, Green ([8]; Preemergence, 31 g ai/ha)
100: Plant response rating, Chamomile [5, 14] | Plant response rating, Chamomile [5, 15] | Plant response rating, Chickweed [6, 14] | Plant response rating, Chickweed [6, 15] | Plant response rating (scale of 0 to 100), Chickweed ([6]; Preemergence, 31 g ai/ha) | Plant response rating (scale of 0 to 100), Chickweed ([6]; Preemergence, 62 g ai/ha) | Plant response rating, Chickweed [6, 17] | Plant response rating, Chickweed [6, 18] | Plant response rating, Field Violet [7, 15] | Plant response rating (scale of 0 to 100), Field Violet ([7]; Preemergence, 31 g ai/ha) | Plant response rating (scale of 0 to 100), Field Violet ([7]; Preemergence, 62 g ai/ha) | Plant response rating, Field Violet [7, 17] | Plant response rating, Field Violet [7, 18] | Plant response rating, Foxtail, Green [8, 18] | Plant response rating, Galium [9, 15] | Plant response rating, Galium [9, 18] | Plant response rating, Kochia (kochia (Kochia scoparia); [15]) | Plant response rating, Kochia (kochia (Kochia scoparia); [18]) | Plant response rating (scale of 0 to 100), Lambsquarters ([10]; Preemergence, 62 g ai/ha) | Plant response rating, Lambsquarters [10, 17] | Plant response rating, Lambsquarters [10, 18] | Plant response rating, Pigweed [11, 14] | Plant response rating, Pigweed [11, 15] | Plant response rating (scale of 0 to 100), Pigweed ([11]; Preemergence, 31 g ai/ha) | Plant response rating (scale of 0 to 100), Pigweed ([11]; Preemergence, 62 g ai/ha) | Plant response rating, Pigweed [11, 17] | Plant response rating, Pigweed [11, 18] | Plant response rating, Pigweed [11, 19]
50: Plant response rating, Blackgrass [2, 16] | Plant response rating (scale of 0 to 100), Kochia (kochia (Kochia scoparia); Preemergence, 62 g ai/ha)
70: Plant response rating, Bromegrass, Downy [4, 17] | Foxtail, Green plant response rating [8, 20] | Plant response rating, Foxtail, Green [8, 19]
75: Plant response rating, Blackgrass [2, 18] | Plant response rating, Bluegrass [3, 18] | Plant response rating, Bromegrass, Downy [4, 18] | Plant response rating, Foxtail, Green [8, 14]
